Data published in paper PMC5544527 (Journal of neuroscience research, 2015).

Key:
Type in all cases: cell-based
[1] = target: GABAA receptor α4β3δ (Homo sapiens, UniProt P28472+P48169); test: whole-cell patch clamp, potentiation of GABA
[2] = target: T1, GABAA receptor α1β2γ2 (Homo sapiens, UniProt P14867+P47870); test: whole-cell patch clamp, potentiation of GABA
[3] = target: T1, GABAA receptor α1β2γ2; test: whole-cell patch clamp, potentiation of GABA-evoked currents at […]

GABAA receptor α4β3δ, sequence (P48169 36-554): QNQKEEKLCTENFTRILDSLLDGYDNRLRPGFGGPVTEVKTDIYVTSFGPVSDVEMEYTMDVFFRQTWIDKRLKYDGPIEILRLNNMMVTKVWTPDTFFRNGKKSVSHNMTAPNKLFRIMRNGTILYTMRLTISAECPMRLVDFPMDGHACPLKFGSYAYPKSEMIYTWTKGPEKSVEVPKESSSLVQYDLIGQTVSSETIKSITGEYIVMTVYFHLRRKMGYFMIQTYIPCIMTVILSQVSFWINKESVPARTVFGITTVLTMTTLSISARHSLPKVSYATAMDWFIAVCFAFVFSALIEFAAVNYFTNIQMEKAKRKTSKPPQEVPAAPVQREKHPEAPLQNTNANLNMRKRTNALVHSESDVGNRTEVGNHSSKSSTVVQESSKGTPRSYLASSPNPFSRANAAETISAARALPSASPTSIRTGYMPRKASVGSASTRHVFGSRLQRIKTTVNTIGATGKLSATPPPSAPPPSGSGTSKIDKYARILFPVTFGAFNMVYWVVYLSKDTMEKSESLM
GABAA receptor α4β3δ, sequence (P28472 26-473): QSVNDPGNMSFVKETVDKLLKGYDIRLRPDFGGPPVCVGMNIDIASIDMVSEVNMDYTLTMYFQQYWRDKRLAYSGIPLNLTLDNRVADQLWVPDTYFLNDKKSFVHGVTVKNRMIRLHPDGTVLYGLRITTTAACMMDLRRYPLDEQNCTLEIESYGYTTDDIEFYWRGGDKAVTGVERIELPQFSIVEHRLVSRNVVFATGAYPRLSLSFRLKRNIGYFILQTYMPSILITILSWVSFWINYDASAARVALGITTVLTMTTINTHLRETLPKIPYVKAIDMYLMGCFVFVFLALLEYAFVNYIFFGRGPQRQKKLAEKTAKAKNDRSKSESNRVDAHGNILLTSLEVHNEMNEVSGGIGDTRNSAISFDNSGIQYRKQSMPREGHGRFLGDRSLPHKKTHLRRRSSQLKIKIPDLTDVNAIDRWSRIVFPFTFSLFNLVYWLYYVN
GABAA receptor α4β3δ, sequence (O14764 25-452 partner): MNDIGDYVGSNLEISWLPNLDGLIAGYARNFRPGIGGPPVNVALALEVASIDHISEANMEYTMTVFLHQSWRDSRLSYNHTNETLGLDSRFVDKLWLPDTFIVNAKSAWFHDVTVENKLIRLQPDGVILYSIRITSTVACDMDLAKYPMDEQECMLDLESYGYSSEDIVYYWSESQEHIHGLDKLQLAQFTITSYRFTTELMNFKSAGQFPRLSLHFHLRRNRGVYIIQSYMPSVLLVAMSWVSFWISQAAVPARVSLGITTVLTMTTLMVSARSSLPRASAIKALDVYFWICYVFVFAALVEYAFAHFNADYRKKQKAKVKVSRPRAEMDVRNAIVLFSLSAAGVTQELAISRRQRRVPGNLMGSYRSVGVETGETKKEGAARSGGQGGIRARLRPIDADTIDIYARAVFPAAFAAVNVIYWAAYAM
T1 sequence (P14867 28-456): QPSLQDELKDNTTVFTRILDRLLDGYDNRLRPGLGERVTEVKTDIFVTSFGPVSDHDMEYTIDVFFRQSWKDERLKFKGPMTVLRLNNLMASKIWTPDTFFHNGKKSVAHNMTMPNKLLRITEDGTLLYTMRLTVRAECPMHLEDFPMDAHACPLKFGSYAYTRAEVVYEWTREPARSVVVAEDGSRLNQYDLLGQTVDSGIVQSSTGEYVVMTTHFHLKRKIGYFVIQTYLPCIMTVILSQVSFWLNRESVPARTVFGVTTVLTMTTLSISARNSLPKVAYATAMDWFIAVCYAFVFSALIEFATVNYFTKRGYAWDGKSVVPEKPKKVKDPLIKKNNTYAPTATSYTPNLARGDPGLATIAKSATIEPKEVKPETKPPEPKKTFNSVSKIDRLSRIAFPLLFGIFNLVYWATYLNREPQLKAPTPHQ
T1 sequence (P47870 26-512): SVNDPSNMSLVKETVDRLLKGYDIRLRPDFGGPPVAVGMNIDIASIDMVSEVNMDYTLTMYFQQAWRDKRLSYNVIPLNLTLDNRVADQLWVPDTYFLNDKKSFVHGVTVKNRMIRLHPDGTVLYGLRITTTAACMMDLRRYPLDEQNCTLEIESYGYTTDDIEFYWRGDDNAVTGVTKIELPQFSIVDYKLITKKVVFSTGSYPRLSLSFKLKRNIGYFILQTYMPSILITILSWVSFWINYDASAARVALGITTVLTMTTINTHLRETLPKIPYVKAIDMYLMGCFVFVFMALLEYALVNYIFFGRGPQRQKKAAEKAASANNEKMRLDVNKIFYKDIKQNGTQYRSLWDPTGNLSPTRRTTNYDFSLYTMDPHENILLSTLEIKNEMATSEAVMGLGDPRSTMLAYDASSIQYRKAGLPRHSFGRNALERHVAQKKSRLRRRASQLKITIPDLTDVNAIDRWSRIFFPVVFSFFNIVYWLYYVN
T1 sequence (P18507 40-475 partner): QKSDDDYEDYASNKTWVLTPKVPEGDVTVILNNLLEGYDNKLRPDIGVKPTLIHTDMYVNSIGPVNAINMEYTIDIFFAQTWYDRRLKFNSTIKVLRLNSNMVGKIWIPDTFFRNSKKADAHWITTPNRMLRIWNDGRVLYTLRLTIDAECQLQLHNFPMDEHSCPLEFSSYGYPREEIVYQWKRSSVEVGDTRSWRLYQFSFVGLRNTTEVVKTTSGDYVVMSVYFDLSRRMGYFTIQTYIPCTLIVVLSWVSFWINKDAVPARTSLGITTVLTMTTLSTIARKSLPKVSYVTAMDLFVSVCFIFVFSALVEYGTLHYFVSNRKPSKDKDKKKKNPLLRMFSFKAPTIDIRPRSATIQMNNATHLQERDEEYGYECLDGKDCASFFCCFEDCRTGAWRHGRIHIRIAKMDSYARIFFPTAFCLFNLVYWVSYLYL

CC(=O)[C@H]1CC[C@H]2[C@@H]3CC[C@H]4C[C@H](O)CC[C@]4(C)[C@H]3CC[C@]12C [allopregnanolone]
EC50 [1]: 80 nM | EC50 [2]: 185 nM

SGE-872
EC50 [1]: 160 nM | % potentiation at 10 μM [3]: 744 % potentiation at 10 µM
